Test system: P. aphanidermatum cytochrome b gene F129 and L129 alleles
Assay: ARMS/Scorpion F129L SNP detection assay (Ct of allele selective primers on plasmid DNA templates)
Set-up: species or system Pythium aphanidermatum
Conditions: for ΔCt: between C and A plasmid template; for ΔCt / A Ct / C Ct: 2×10^6 molecules/ul; for A Ct: mutant (L129) plasmid template; for NTC amplification: no template (water only) control; for C Ct: wild type (F129) plasmid template; for Observed A:C ratio: plasmid templates 2×10^6 molecules/ul
Protocol: In all ARMS/Scorpion™ F129L SNP detection assays AmpliTaq Gold enzyme (Applied Biosystems) was included in the reaction mixes at 1 unit/25 μl reaction. The reaction mix also contained 1× buffer (10 mM Tris-HCl (pH8.3), 50 mM KCl, 3.5 mM MgCl2, 0.01% gelatine) and 100 μM dNTPs (Amersham Pharmacia Biotech). Amplifications were performed in an ABI Prism 7700 instrument for continuous fluorescence monitoring. A preliminary cycle of 95° C. for 10 minutes was performed followed by 50 cycles of 95° C. for 15 sec and 60° C. for 45 sec. Fluorescence was monitored during the annealing/extension stage throughout all cycles.
Primers were first validated for use in such analyses by using plasmid DNA, at various concentrations, as template. This was performed in order to check the specificity and sensitivity of the primer designs. Partial wild type cytochrome b gene sequence and the corresponding tract containing the F129L mutation amplified from two P. aphanidermatum isolates were cloned into the TA pCR2.1 vector (Invitrogen) as described previously in example 2. 150 ul of the bacterial culture, from the 10 transformants from each cloning event picked for Wizard Plus plasmid DNA Preparations (Promega) (see example 2), was saved prior to carrying out these preparations and stored at 4° C. Following sequence analysis wild type and mutant plasmid DNA samples that contained no sequence differences from the consensus sequence were noted. The bacterial culture from which these wild type and mutant plasmid DNA sequences originated was picked for plasmid DNA maxipreps (Qiagen) following the manufacturers protocol. The resulting plasmid DNA was quantified and diluted to a concentration of 1 ug/ul (2×10^11 molecules/ul) using sterile double distilled H2O.
The wild type and mutant plasmid DNA cassettes were diluted further to a concentration of 10 pg/ul (or 2×10^6 molecules/ul) in double distilled H2O and used as template to validate the specificity of the ARMS primers. Each ARMS primer was tested on wild type and mutant template as well as a no template (water only) control, under the PCR conditions described above. The Pt129-1 and Pt129-4 primers were preferred to the Pt129-2 and Pt129-3 and the Pt129-5 and Pt129-6 primers as duplicate PCRs gave more consistent results and were more specific. Wild type ARMS primer Pt129-1 gave a window of 15.27 cycles before amplification occurred on the inappropriate (mutant) template (FIG. 7). Mutant ARMS primer Pt129-4 gave a window of 16.96 cycles before amplification occurred on the inappropriate (wild type) template (FIG. 8).
Following the selection of a suitable ARMS primer for the detection of the point mutation the assay was validated further, so that its sensitivity of detection was fully understood before it was used to test biological samples for the presence of the L129 mutation. The first validation step was to establish if the window of specificity varied for the chosen ARMS primers over a 6 orders of magnitude range of wild type and mutant template DNA concentration. The wild type and mutant plasmid DNA cassettes described previously were diluted in Bovine Serum Albumin (BSA) (Fraction V Powder minimum 96%, Sigma A9647) at a concentration of 1 mg/ml through a 10 fold dilution series. The template concentrations covered the range 2×10^8 molecules/ul to 2×10^2 molecules/ul. Both plasmid DNA cassettes and a no template (water only) control were tested in the ARMS/Scorpion assay using primers Pt129-1, Pt129-4 and Pt129-S, as described above.
In all ARMS/Scorpion™ F129L SNP detection assays AmpliTaq Gold enzyme (Perkin-Elmer/ABI) was included in the reaction mixes at 1 unit/25 μl reaction. The reaction mix also contained 1× buffer (10 mM Tris-HCl (pH8.3), 50 mM KCl, 3.5 mM MgCl2, 0.01% gelatine) and 100 μM dNTPs (Amersham Pharmacia Biotech). Amplifications were performed in an ABI Prism 7700 instrument for continuous fluorescence monitoring. […]

Substance	ΔCt	A Ct	NTC amplification	C Ct	Observed A:C ratio
Pt129-C2 (DNA ACCCCAAGGTAATACATAACCCACG; chemistry not given here)	23.15	43.57	none	20.42	
Pt129-A4 (DNA ACCCCAAGGTAATACATAACCCTTT; chemistry not given here)	14.38	24.42	none	38.8	
Pt129-A10 (DNA ACCCCAAGGTAATACATAACTCCTT; chemistry not given here)	4.2	31.4	none	27.2	
Pt129-A6 (DNA ACCCCAAGGTAATACATAACCCGTT; chemistry not given here)	12.17	21.3	none	33.47	
Pt129-S6 (DNA TTGACCCCAAGGTAATACATAACTC; chemistry not given here)		20.84	none	20.43	
Pt129-A13 (DNA ACCCCAAGGTAATACATAACTCGTT; chemistry not given here)	18.8	41.99	none	23.19	
Pt129-A9 (DNA ACCCCAAGGTAATACATAACGCACT; chemistry not given here)	14.96	37.1	none	22.14	
Pt129-A2 (DNA ACCCCAAGGTAATACATAACCCACT; chemistry not given here)	13.14	20.87	none	34.01	
Pt129-C5 (DNA ACCCCAAGGTAATACATAACCCCTG; chemistry not given here)	22.26	42.36	none	20.1	
Pt129-A7 (DNA ACCCCAAGGTAATACATAACTCACT; chemistry not given here)	14.05	36.33	none	22.28	
Pt129-A11 (DNA ACCCCAAGGTAATACATAACACCTT; chemistry not given here)	6.4	31.25	none	24.85	
Pt129-C6 (DNA ACCCCAAGGTAATACATAACCCGTG; chemistry not given here)	24.54	44.17	none	19.63	
Pt129-C1 (DNA ACCCCAAGGTAATACATAACCCAAG; chemistry not given here)	16.81	42.6	none	25.79	
Pt129-A5 (DNA ACCCCAAGGTAATACATAACCCCTT; chemistry not given here)	11.09	21.42	none	32.51	
Pt129-A12 (DNA ACCCCAAGGTAATACATAACGCCTT; chemistry not given here)	2.7	30.16	none	27.46	
Pt129-A15 (DNA ACCCCAAGGTAATACATAACGCGTT; chemistry not given here)		no C	none	30.05	all A
Pt129-C3 (DNA ACCCCAAGGTAATACATAACCCAGG; chemistry not given here)		no A	none	29.7	all C
Pt129-A3 (DNA ACCCCAAGGTAATACATAACCCAGT; chemistry not given here)	8.91	31.29	none	40.2	
Pt129-A8 (DNA ACCCCAAGGTAATACATAACACACT; chemistry not given here)	13.76	35.87	none	22.11	
Pt129-A1 (DNA ACCCCAAGGTAATACATAACCCAAT; chemistry not given here)	5.79	26.54	none	32.33	
